The values that follow are results of earlier work, collected in US11154521B2 (Acer Therapeutics Inc., priority 2016, dated 2021).

In series [1] the test system is torsinA. Conditions: Cho et al. PLoS One 2014.
The conditions of series [2]: healthy adults.
The test system of series [3] is activated glial cells.
Series [4] relates to cultured human muscle fibers. Conditions: Nogalska et al. 2014.

As to `O=C(O)CCCc1ccccc1` [4-phenylbutyrate], the “ER stress and inhibited cAMP response to forskolin induced by torsinA mutation” value in series [1] is reported as “corrected”.

For the molecule sodium phenylbutyrate, the mean terminal half-life in series [2] is 48 min. Further, the “proinflammatory molecules and reactive oxygen species (ROS)” value in series [3] was “suppress”. In series [4], the “Aβ42 and its oligomers” value is on record as “decrease”; the lysosomal activity entry is recorded as “improve”; the muscle-fiber vacuolization result is “prevent”; the γ-secretase activity result was “decrease”.
